Measurements taken from ChEMBL document CHEMBL3044763, “Inhibitory Activities of Rhodanine Derivatives on Plant Growth” (Biosci Biotechnol Biochem, 1996).

What was measured:
Type in all cases: functional
[1] = tested on: Brassica rapa subsp. oleifera; assay: Growth inhibition of Brassica rapa subsp. oleifera assessed as chlorophyll a level at 5 x 10^-5 M after 7 days; set-up: scale not given: the % may be the effect or the level left
[2] = tested on: Brassica rapa subsp. oleifera; assay: Growth inhibition of Brassica rapa subsp. oleifera assessed as chlorophyll b level at 3 x 10^-4 M after 7 days; set-up: scale not given: the % may be the effect or the level left
[3] = tested on: Brassica rapa subsp. oleifera; assay: Growth inhibition of Brassica rapa subsp. oleifera assessed as total chlorophyll level at 3 x 10^-5 M after 7 days; set-up: scale not given: the % may be the effect or the level left
[4] = tested on: Brassica rapa subsp. oleifera; assay: Growth inhibition of Brassica rapa subsp. oleifera assessed as chlorophyll b level at 1 x 10^-4 M after 7 days; set-up: scale not given: the % may be the effect or the level left
[5] = tested on: Brassica rapa subsp. oleifera; assay: Growth inhibition of Brassica rapa subsp. oleifera assessed as total chlorophyll level at 1 x 10^-4 M after 7 days; set-up: scale not given: the % may be the effect or the level left
[6] = tested on: Brassica rapa subsp. oleifera; assay: Growth inhibition of Brassica rapa subsp. oleifera assessed as chlorophyll b level at 5 x 10^-5 M after 7 days; set-up: scale not given: the % may be the effect or the level left
[7] = tested on: Brassica rapa subsp. oleifera; assay: Growth inhibition of Brassica rapa subsp. oleifera assessed as total chlorophyll level at 5 x 10^-5 M after 7 days; set-up: scale not given: the % may be the effect or the level left
[8] = tested on: Brassica rapa subsp. oleifera; assay: Growth inhibition of Brassica rapa subsp. oleifera assessed as chlorophyll a level at 3 x 10^-4 M after 7 days; set-up: scale not given: the % may be the effect or the level left
[9] = tested on: Brassica rapa subsp. oleifera; assay: Growth inhibition of Brassica rapa subsp. oleifera assessed as root growth at 5 x 10^-5 M after 7 days
[10] = tested on: Brassica rapa subsp. oleifera; assay: Growth inhibition of Brassica rapa subsp. oleifera assessed as root growth at 1 x 10^-4 M after 7 days
[11] = tested on: Brassica rapa subsp. oleifera; assay: Growth inhibition of Brassica rapa subsp. oleifera assessed as root growth at 3 x 10^-4 M after 7 days
[12] = tested on: Brassica rapa subsp. oleifera; assay: Growth inhibition of Brassica rapa subsp. oleifera assessed as chlorophyll b level at 3 x 10^-5 M after 7 days; set-up: scale not given: the % may be the effect or the level left
[13] = tested on: Brassica rapa subsp. oleifera; assay: Growth inhibition of Brassica rapa subsp. oleifera assessed as chlorophyll a level at 3 x 10^-5 M after 7 days; set-up: scale not given: the % may be the effect or the level left
[14] = tested on: Brassica rapa subsp. oleifera; assay: Growth inhibition of Brassica rapa subsp. oleifera assessed as root growth at 3 x 10^-5 M after 7 days
[15] = tested on: Brassica rapa subsp. oleifera; assay: Growth inhibition of Brassica rapa subsp. oleifera assessed as total chlorophyll level at 3 x 10^-4 M after 7 days; set-up: scale not given: the % may be the effect or the level left
[16] = tested on: Brassica rapa subsp. oleifera; assay: Growth inhibition of Brassica rapa subsp. oleifera assessed as chlorophyll a level at 1 x 10^-4 M after 7 days; set-up: scale not given: the % may be the effect or the level left

`O=C([O-])COc1ccc(Cl)cc1Cl.[Na+]` showed an Activity [1] of 11.51%, an Activity [2] of 1.68% and an Activity [3] of 25.12%. The Activity [4] was 6.1%, the Activity [5] was 18.67% and the Activity [6] was 4.84%. It also gave an Activity [7] of 16.35%, an Activity [8] of 3.16% and a Root length [9] of 3.1 mm. For the same molecule, the Activity [10] was 2.6 mm, the Activity [11] was 2.1 mm and the Activity [12] was 7.32%. The Activity [13] was 17.82%, the Root length [14] was 3.3 mm and the Activity [15] was 4.82%. For the same molecule, the Activity [16] was 12.57%.
